Test results taken from patent US4983740A, “Process for 1,4-dihydropyridine compounds” (Adir et Compagnie, priority 1986, dated 1991).

What was measured:
[1] = test system: rat aorta; assay: In vitro activity in rat aorta stimulated by potassium ions; format: cell-based, rat (male Wistar); conditions: 1 h; rat aorta rings, KCl 80 mM stimulation, cumulative doses at 60 minutes intervals
Description: Determination of the Vitro Activity in Rat Aorta Stimulated by Potassium Ions
This trial was carried out using isolated organs removed from male Wistar rats weighing 300 to 400 g, kept under a water diet 18 hours before sacrificing.
After quickly sacrificing the animal, the aorta (at the level of the arch of the aorta) is removed and dissected into 2 mm-long rings; the endothelium is removed mechanically. After an equilibration period of 1 hour in a physiological solution consisting of (mM): NaCl 112, KCl 5, KH2 PO4 1, MgSO4 1.2, CaCl2 2.5, NaHCO3 25 and glucose 11.5, the preparations are stimulated with a potassium-rich solution. The latter consists of (mM):NaCl 37, KCl 80, KH2 PO4 1, MgSO4 1.2, CaCl2 2.5, NaHCO3 25 and glucose 11.5. This solution has a pH of 7.4 at 37° C.
After 15 minutes of stabilization, the compounds to be tested are then added (sample volume 0.2 ml) at cumulative doses at 60 minutes intervals. From the relaxation values obtained, it is possible to construct a doseresponse curve, leading to the calculation of an IC50 value (expressed in M).

[2] = test system: conscious spontaneous hypertensive rats (SHR); assay: Long-term studies in conscious spontaneous hypertensive rats (oral, single daily dose, systolic arterial pressure); format: in vivo, rat (SHR); conditions: 1 mg/kg/d; for Systolic arterial pressure Δ(mm Hg) 24 h after the last administration of the products, D1: day 1; for Systolic arterial pressure Δ(mm Hg) 24 h after the last administration of the products, D2: day 2; for Systolic arterial pressure Δ(mm Hg) 24 h after the last administration of the products, D3: day 3; for Systolic arterial pressure Δ(mm Hg) 24 h after the last administration of the products, D4: day 4; for Systolic arterial pressure Δ(mm Hg) 24 h after the last administration of the products, D7: day 7
Description: Long-term Studies in Conscious Spontaneous Hypertensive rats (SHR) Male rats weighing 280 to 300 g, aged 16 weeks, are used in this study. The systolic arterial pressure is determined with a Rhema multichannel 8,000® apparatus, according to the indirect method, at the tail of the animal. The compounds to be tested are administered orally, in a single daily dose. Determinations of arterial pressure are carried out each day just before the treatment. Amlodipine was also studied under the same conditions.

[3] = test system: conscious spontaneous hypertensive rats (SHR); assay: Short-term studies in conscious spontaneous hypertensive rats (oral, systolic arterial pressure); format: in vivo, rat (SHR)
Description: Short-term Studies in Conscious Spontaneous Hypertensive Rats (SHR)
Male spontaneous hypertensive rats weighing 270 to 320 g, aged 16 to 24 weeks, are anesthetized with ether. A polyethylene catheter is introduced into the femoral artery and moved forward to the level of the tail. The pressure in the femoral artery is recorded with a Statham® P23 sensor, on a Gould® 2400 recorder. The animals are treated at least one hour after the operation. The compounds are administered orally, in the dissolved form. The doses administered are expressed in mg/kg of base. The compounds of the invention were compared with amlodipine and with another 1,4-dihydropyridine derivative reference compound, nifedipine.

[4] = test system: conscious dogs with renal hypertension; assay: Study in conscious dogs with renal hypertension (oral, mean arterial pressure); format: in vivo, dog (Mongol); conditions: digestive route
Text: Study in Conscious Dogs with Renal Hypertension
Mongol dogs weighing 20 to 25 kg are used. A Silastic® catheter, inserted under anesthesia at the level of the abdominal aorta, left in position permanently, enables the arterial pressure to be determined subsequently in the conscious animal.
Arterial hypertension is induced by a second operation, under anesthesia, consisting in constricting the left renal artery with a clip, decreasing the flow rate therein by approximately 70%, the left kidney is also covered with a latex capsule in order to restrict circulatory compensations; the contralateral kidney is left in position.
The systolic, diastolic and mean arterial pressures are determined with a Statham® P23 pressure sensor attached to the Silastic® catheter and connected to a Gould® "pressure-processor". The compounds are tested in animals which became hypertensive in the conscious state at least one week after the second operation. The arterial pressure is continuously recorded up to 7 hours after the treatment and then at 24 hours.
The compounds to be tested are administered by the digestive route through gastric tubing, in the form of a solution which may be aqueous, aqueous/alcoholic and the like, depending on the solubility of the products.
The doses administered are expressed in mg base per body weight kg.

[5] = biological target: T1, dihydropyridine site associated with the calcium slow channel (Rattus norvegicus, UniProt Q02485); assay: Affinity for the dihydropyridine binding site, displacement of [3H]-PN 200-110; set-up: species or system rat (Wistar); conditions: displacement of [3H]-PN 200-110, microsomal membranes of rat skeletal muscle
T1 construct: microsomal membrane preparations prepared from skeletal muscle of rat (Wistar) hind limbs; from tissue; host or cells: skeletal muscle of rat (Wistar) hind limbs, microsomal fraction
T1 sequence (Q02485 whole entry): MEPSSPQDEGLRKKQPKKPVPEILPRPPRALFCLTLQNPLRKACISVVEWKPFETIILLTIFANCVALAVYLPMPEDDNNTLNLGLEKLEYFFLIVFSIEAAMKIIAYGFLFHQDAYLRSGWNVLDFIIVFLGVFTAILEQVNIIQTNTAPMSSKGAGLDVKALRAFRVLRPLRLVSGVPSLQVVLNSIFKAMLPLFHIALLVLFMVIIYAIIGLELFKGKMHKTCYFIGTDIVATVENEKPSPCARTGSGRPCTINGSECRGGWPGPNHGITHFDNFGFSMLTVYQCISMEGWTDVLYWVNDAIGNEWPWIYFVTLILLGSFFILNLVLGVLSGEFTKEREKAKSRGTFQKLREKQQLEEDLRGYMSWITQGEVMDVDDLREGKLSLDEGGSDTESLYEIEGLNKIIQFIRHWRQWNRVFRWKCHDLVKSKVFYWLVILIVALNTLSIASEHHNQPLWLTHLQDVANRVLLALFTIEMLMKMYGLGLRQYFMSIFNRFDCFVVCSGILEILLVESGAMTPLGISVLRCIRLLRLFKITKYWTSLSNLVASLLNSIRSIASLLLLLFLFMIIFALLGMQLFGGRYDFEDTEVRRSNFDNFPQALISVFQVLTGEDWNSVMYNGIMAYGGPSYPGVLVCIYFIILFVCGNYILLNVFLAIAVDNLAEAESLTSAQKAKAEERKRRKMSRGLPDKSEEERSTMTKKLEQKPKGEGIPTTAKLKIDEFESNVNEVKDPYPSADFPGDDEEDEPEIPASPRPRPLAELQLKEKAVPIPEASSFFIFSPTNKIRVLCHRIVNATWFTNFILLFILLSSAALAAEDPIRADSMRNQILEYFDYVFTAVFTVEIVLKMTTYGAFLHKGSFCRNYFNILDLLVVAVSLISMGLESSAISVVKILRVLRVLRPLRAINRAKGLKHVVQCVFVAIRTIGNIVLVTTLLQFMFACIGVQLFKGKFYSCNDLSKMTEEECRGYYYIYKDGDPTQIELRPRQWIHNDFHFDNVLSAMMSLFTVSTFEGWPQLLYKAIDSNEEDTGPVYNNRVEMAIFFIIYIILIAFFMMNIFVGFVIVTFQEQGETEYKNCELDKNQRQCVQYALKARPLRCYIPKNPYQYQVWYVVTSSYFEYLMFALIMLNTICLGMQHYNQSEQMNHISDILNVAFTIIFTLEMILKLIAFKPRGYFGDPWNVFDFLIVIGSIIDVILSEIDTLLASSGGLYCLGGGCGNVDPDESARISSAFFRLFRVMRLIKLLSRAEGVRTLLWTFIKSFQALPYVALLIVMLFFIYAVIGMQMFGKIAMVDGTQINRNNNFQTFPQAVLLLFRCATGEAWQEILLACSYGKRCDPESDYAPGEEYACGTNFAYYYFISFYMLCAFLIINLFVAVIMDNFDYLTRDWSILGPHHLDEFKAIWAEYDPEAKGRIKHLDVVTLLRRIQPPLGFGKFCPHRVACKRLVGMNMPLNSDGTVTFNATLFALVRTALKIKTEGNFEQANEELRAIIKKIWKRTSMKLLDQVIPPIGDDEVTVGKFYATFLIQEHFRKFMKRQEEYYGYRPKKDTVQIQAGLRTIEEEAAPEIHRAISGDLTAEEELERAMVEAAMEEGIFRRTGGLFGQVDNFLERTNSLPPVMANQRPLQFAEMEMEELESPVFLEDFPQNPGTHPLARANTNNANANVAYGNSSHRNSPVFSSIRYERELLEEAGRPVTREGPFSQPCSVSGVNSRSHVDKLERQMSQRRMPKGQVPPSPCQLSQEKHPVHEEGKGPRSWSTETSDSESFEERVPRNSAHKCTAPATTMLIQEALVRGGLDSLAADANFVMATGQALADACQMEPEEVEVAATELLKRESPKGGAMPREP
T1 sequence (P54290 25-945 partner limits assumed): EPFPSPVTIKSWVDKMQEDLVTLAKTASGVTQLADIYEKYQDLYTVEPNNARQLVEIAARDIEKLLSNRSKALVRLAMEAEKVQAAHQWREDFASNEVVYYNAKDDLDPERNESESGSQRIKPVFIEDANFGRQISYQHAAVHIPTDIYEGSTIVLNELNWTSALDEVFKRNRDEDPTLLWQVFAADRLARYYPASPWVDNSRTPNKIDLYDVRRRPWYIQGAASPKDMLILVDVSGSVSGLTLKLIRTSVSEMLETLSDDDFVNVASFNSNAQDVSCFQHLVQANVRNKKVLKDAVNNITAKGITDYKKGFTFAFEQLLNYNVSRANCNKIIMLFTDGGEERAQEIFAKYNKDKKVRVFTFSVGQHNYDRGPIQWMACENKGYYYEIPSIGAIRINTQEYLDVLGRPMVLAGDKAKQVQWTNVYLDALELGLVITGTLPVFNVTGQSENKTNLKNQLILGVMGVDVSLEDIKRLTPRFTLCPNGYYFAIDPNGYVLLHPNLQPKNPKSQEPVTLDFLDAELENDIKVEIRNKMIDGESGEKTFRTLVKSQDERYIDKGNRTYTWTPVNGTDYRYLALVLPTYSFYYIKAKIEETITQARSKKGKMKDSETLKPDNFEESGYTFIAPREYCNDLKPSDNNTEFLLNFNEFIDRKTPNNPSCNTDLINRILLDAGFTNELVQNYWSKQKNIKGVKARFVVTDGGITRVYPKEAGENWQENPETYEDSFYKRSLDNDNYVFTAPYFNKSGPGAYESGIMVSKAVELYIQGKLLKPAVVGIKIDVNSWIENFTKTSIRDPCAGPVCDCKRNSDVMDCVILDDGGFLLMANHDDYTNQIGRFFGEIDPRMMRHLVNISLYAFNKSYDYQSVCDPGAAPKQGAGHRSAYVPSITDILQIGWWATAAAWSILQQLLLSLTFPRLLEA
T1 sequence (P54290 946-1091 partner limits assumed): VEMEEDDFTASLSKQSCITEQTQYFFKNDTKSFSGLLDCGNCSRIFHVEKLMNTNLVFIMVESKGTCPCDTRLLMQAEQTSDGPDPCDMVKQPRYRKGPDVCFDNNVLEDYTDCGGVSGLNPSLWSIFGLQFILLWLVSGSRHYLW
T1 sequence (P54283 whole entry partner): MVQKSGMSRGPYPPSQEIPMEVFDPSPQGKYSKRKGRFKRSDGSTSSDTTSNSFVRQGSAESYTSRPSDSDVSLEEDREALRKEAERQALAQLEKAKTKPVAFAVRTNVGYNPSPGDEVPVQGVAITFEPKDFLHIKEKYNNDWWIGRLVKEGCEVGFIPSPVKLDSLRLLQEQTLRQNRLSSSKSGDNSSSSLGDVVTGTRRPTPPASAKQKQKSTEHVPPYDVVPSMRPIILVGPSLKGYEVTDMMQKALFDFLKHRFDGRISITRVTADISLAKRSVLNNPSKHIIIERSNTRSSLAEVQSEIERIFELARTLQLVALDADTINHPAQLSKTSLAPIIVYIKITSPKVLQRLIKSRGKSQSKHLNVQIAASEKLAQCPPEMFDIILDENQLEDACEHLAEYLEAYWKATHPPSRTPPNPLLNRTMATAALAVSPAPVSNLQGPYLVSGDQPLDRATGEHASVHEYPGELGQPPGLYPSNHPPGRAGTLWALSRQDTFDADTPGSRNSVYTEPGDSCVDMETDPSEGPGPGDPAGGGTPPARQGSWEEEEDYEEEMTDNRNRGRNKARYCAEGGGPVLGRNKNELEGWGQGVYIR
T1 sequence (P97707 whole entry partner): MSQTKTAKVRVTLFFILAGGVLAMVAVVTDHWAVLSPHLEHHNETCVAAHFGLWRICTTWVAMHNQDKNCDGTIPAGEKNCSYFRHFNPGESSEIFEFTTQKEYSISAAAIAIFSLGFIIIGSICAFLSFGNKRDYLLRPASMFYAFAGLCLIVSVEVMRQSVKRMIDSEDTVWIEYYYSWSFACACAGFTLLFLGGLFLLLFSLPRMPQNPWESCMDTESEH
Description: Affinity for the Dihydropyridine Binding Site
This study was carried out on microsomal membrane preparations prepared from skeletal muscle of rat (Wistar) hind limbs.
The rats are killed by decapitation. The skeletal muscles are removed and washed in buffer I (20 mM MOPS/KOH pH 7.4, 0.3M sucrose, 1 mM EDTA, 0.1 mM iodoacetamide, 1 μM pepstatin A, 1 mg/l leupeptin and 0.1 μM PMSF). The muscles are then mechanically fragmented, taken up in 4 volumes of buffer I per gramme of tissue and homogenized.
The homogenate is then centrifuged for 10 minutes at 3,200 g, the pellets are removed and the supernatants are then centrifuged for 20 minutes at 15,000 g, and the supernatants are stirred for 15 minutes at 4° C. in buffer I containing 0.6M final KCl and then centrifgued for 45 minutes at 70,000 g.
The pellets are taken up in buffer I and homogenized in a Potter. The homogenates are centrifuged at 100,000 g for 45 minutes and the pellets thereby obtained correspond to the microsomal fraction used for the studies of binding and displacement.
The activity of the product is assessed by the displacement of [^3 H]-PN 200-110, bound specifically to its receptor associated with the calcium slow channel, by increasing concentrations of the test products. The value obtained (K0.5) for each of the products, which represents the concentration of the product displacing 50% of the [^3 H]-PN 200-110, permits calculation of a true dissociation constant (KI): [formula] where [L*] is the concentration of free [^3 H]-PN 200-110 and Kd the dissociation constant at equilibrium of the [^3 H]-PN 200-110 complex, determined by direct binding.
The KI values of the two products are recorded in Table VI

[6] = test system: unanesthetized spontaneously hypertensive rats (SHR); assay: Study in unanesthetized spontaneously hypertensive rats (intravenous, systolic blood pressure); format: in vivo, rat (SHR); conditions: 0.1 mg/kg, intravenous
Description: Study in Unanesthetized Spontaneously Hypertensive Rats (SHR)
SHR male rats weighing 280 to 350 g and aged from 18 to 24 weeks are anaesthetized with imalgene® (150 mg/kg i.p.). Two polyethylene catheters are introduced, one into the abdominal aorta for the recording of hemodynamic parameters and the other into the jugular vein for the administration of the products. The catheters are taken through to neck level. The animals are used at least 48 hours after surgical intervention.
The systolic and diastolic abdominal bood pressures are recorded by means of a Statham P23XL transducer on a Gould ES 1000 recorder. The products are administered intravenously in a volume of 0.5 ml/kg. The doses administered of the test compounds are expressed in mg/kg of base. The blood pressure is recorded in continuous fashion up to 6 hours after the treatment.
The changes in systolic blood pressure after treatment are recorded in Table VIII.

| SMILES | IC50 [1] | Systolic arterial pressure Δ(mm Hg) 24 h after the last administration of the products, D1 [2] | Systolic arterial pressure Δ(mm Hg) 24 h after the last administration of the products, D2 [2] | Systolic arterial pressure Δ(mm Hg) 24 h after the last administration of the products, D3 [2] | Systolic arterial pressure Δ(mm Hg) 24 h after the last administration of the products, D4 [2] | Systolic arterial pressure Δ(mm Hg) 24 h after the last administration of the products, D7 [2] | Systolic arterial pressure after treatment, Δ mm Hg, 4 h ([3]; 1 mg/kg) | Systolic arterial pressure after treatment, Δ mm Hg, 6 h ([3]; 1 mg/kg) | Systolic arterial pressure after treatment, Δ mm Hg, 24 h ([3]; 1 mg/kg) | Systolic arterial pressure after treatment, Δ mm Hg, 4 h ([3]; 3 mg/kg) | Systolic arterial pressure after treatment, Δ mm Hg, 6 h ([3]; 3 mg/kg) | Systolic arterial pressure after treatment, Δ mm Hg, 24 h ([3]; 3 mg/kg) | Mean arterial pressure after treatment, Δ mm Hg, 4 h ([4]; 0.5 mg/kg) | Mean arterial pressure after treatment, Δ mm Hg, 7 h ([4]; 0.5 mg/kg) | Mean arterial pressure after treatment, Δ mm Hg, 24 h ([4]; 0.5 mg/kg) | Mean arterial pressure after treatment, Δ mm Hg, 4 h ([4]; 1.0 mg/kg) | Mean arterial pressure after treatment, Δ mm Hg, 7 h ([4]; 1.0 mg/kg) | Mean arterial pressure after treatment, Δ mm Hg, 24 h ([4]; 1.0 mg/kg) | other results |
| --- | --- | --- | --- | --- | --- | --- | --- | --- | --- | --- | --- | --- | --- | --- | --- | --- | --- | --- | --- |
| CCOC(=O)C1=C(COCCOCCN)NC(C)=C(C(=O)OC)C1c1c(F)c(F)c(F)c(F)c1F (racemic) [EXAMPLE 1, (4R,S)-2-{[2-(2-Aminoethoxy)ethoxy]methyl}-3-ethoxycarbonyl-5-methoxycarbonyl-6-methyl-4-pentafluorophenyl-1,4-dihydropyridine hemifumarate] | 25 nM | -52 mm Hg | -51 mm Hg | -49 mm Hg | -44 mm Hg | -46 mm Hg | -44 mm Hg | -54 mm Hg | -47 mm Hg | -79 mm Hg | -78 mm Hg | -71 mm Hg | -21 mm Hg | -22 mm Hg | -15 mm Hg | -45 mm Hg | -47 mm Hg | -46 mm Hg | – |
| CCOC(=O)C1=C(COCCOCCN)NC(C)=C(C(=O)OC)C1c1cccc(Cl)c1Cl (racemic) [EXAMPLE 6, (4R,S)-2-{[2-(2-Aminoethoxy)ethoxy]methyl}-4-(2,3-dichlorophenyl)-3-ethoxycarbonyl-5-methoxycarbonyl-6-methyl-1,4-dihydropyridine] | 5 nM | -22 mm Hg | -18 mm Hg | – | -17 mm Hg | -31 mm Hg | -14 mm Hg | -17 mm Hg | -17 mm Hg | -52 mm Hg | -55 mm Hg | -36 mm Hg | -20 mm Hg | -29 mm Hg | -11 mm Hg | -40 mm Hg | -44 mm Hg | -49 mm Hg | Ki [5]: 8.2 ± 1.7 nM; Systolic blood pressure changes (ΔmmHg) after treatment, 1H 30 min ([6]; 1 h 30 min): -11 ± 3 mmHg; Systolic blood pressure changes (ΔmmHg) after treatment, 3H ([6]; 3 h): -5 ± 3 mmHg; Systolic blood pressure changes (ΔmmHg) after treatment, 6H ([6]; 6 h): -5 ± 2 mmHg |
| CCOC(=O)C1=C(COCCN)NC(C)=C(C(=O)OC)C1c1ccccc1Cl (centres unmarked) [AMLODIPINE, amlodipine, reference compound] | – | -9 mm Hg | -8 mm Hg | -14 mm Hg | -14 mm Hg | -9 mm Hg | – | – | – | -47 mm Hg | -46 mm Hg | -13 mm Hg | -28 mm Hg | -20 mm Hg | -10 mm Hg | -45 mm Hg | -39 mm Hg | -29 mm Hg | – |
